Source: patent publication US11787799B2 (priority 2015, dated 2023)
“And” between values parts separate entries of the source, which are not always exact repeats. Identical values can stand only once. Like-named read-outs stand apart in the source and are kept apart here.

How the values were obtained:
Echovirus 9 = assay: microbe, parasite or virus in culture; assay type: cell-based; details: read-out: EC50 ECHO09
Poliovirus 3 = assay: microbe, parasite or virus in culture; assay type: cell-based; details: read-out: EC50 PV3
Venezuelan Encephalitis = assay type: cell-based, Venezuelan encephalitis virus
Rabies = assay type: cell-based, rabies virus
Coxsackievirus B2 = assay: microbe, parasite or virus in culture; assay type: cell-based; details: read-out: EC50 CVB2
Echovirus 6 = assay: microbe, parasite or virus in culture; assay type: cell-based; details: read-out: EC50 ECHO06
Poliovirus 1 = assay: microbe, parasite or virus in culture; assay type: cell-based; details: read-out: EC50 PV1
Influenza A H1N1 = assay: microbe, parasite or virus in culture; assay type: cell-based; details: read-out: EC50 Influenza A H1N1
Enterovirus D68/Fermon = assay: Antiviral assay, Enterovirus D68 strain Fermon in RD cells; assay type: cell-based
Japanese Encephalitis = assay type: cell-based
Coxsackievirus B1 = assay: microbe, parasite or virus in culture; assay type: cell-based; details: read-out: EC50 CVB1
BHK = details: read-out: CC50 (Powassan test)
Measles = assay: microbe, parasite or virus in culture; assay type: cell-based; details: read-out: EC50 Measles
SARS Coronavirus = assay type: cell-based
Yellow Fever Virus = assay: microbe, parasite or virus in culture; assay type: cell-based; details: read-out: EC50 Yellow Fever Virus
Echovirus 7 = assay: microbe, parasite or virus in culture; assay type: cell-based; details: read-out: EC50 ECHO07
[1] = test system: Enterovirus D68/US/KY/14-18953; assay: Antiviral assay, Enterovirus D68 strain US/KY/14-18953 in RD cells; assay type: cell-based
Echovirus 25 = assay: microbe, parasite or virus in culture; assay type: cell-based; details: read-out: EC50 ECHO25
Coxsackievirus A9 = assay: microbe, parasite or virus in culture; assay type: cell-based; details: read-out: EC50 COX A9
Powassan = assay type: cell-based, Powassan virus
Chikungunya = assay type: cell-based, chikungunya virus
Coxsackievirus B3-H3 = assay: microbe, parasite or virus in culture; assay type: cell-based; details: read-out: EC50 CVB3-H3
Enterovirus 71 = assay: microbe, parasite or virus in culture; assay type: cell-based; details: read-out: EC50 EV71
Rift Valley virus = assay: organism not typed; assay type: cell-based; details: read-out: EC50 Rift Valley virus
[2] = test system: Enterovirus D68/US/Mo/14-18949; assay: Antiviral assay, Enterovirus D68 strain US/Mo/14-18949 in RD cells; assay type: cell-based
[3] = test system: RSV (resp syncitial virus); assay: microbe, parasite or virus in culture; assay type: cell-based; details: read-out: EC50 RSV
Echovirus 30 = assay: microbe, parasite or virus in culture; assay type: cell-based; details: read-out: EC50 ECHO30
Coxsackievirus B4 = assay: microbe, parasite or virus in culture; assay type: cell-based; details: read-out: EC50 CVB4
Punta Toro virus = assay: microbe, parasite or virus in culture; assay type: cell-based; details: read-out: EC50 Punta Toro virus
Vero = details: read-out: CC50 (Yellow Fever Virus test)
BHK-21 = details: read-out: CC50 (Rabies test)
Coxsackievirus B5 = assay: microbe, parasite or virus in culture; assay type: cell-based; details: read-out: EC50 CVB5
Echovirus 11 = assay: microbe, parasite or virus in culture; assay type: cell-based; details: read-out: EC50 ECHO11
[4] = read-out: CC50 (Rift Valley virus test), with Rift Valley virus MP-12 test
[5] = read-out: CC50 (SARS Coronavirus test), with SARS Coronavirus Urbani test

| SMILES | EC50 (Echovirus 9) [µM] | CC50 (RD cells) [µM] | EC50 (Poliovirus 3) [µM] | EC50 (Coxsackievirus B2) [µM] | EC50 (Echovirus 6) [µM] | EC50 (Poliovirus 1) [µM] | EC50 (Coxsackievirus B1) [µM] | EC50 (Echovirus 7) [µM] | CC50 (LLC cells) [µM] | EC50 [1] [µM] | EC50 (Echovirus 25) [µM] | EC50 (Coxsackievirus A9) [µM] | CC50 (HeLa-RW cells) [µM] | EC50 (Coxsackievirus B3-H3) [µM] | EC50 (Enterovirus 71) [µM] | EC50 [2] [µM] | EC50 (Echovirus 30) [µM] | EC50 (Coxsackievirus B4) [µM] | EC50 (Coxsackievirus B5) [µM] | EC50 (Echovirus 11) [µM] | other results |
| --- | --- | --- | --- | --- | --- | --- | --- | --- | --- | --- | --- | --- | --- | --- | --- | --- | --- | --- | --- | --- | --- |
| CC(C)n1ncc2c(C(=O)Nc3ccc(F)cc3)cc(-c3cccs3)nc21 [JX-017] | 0.6 | > 200 | > 25 | 1 ± 0.3 | 1 ± 0.4 | > 25 | 0.9 ± 0.3 | 1.3 ± 0.2 | > 200 | 0.5 ± 0.17 | 1.2 | 0.9 ± 0.5 | > 200 | 0.7 ± 0.2 | 0.9 ± 0.3 | 0.35 ± 0.06 | 0.5 | 0.8 | 1 ± 0.1 |  | EC50 (Venezuelan Encephalitis): 0.32 µM; EC50 (Rabies): > 100 µM; EC50 (Influenza A H1N1): > 100 µM; EC50 (Enterovirus D68/Fermon): 0.33 ± 0.06 µM; EC50 (Japanese Encephalitis): > 0.43 µM; CC50 (BHK): 37 µM; CC50 (MA-104): > 100 µM; EC50 (Measles): 8.9 µM; EC50 (SARS Coronavirus): > 10 µM; EC50 (Yellow Fever Virus): > 9.9 µM; CC50 (MDCK): > 100 µM; EC50 (Powassan): 32 µM; CC50 (Vero 76; [4]): 52 µM; CC50 (Vero 76; [5]): 10 µM; EC50 (Chikungunya): 0.29 µM; EC50 (Rift Valley virus): > 52 µM; EC50 [3]: 69 µM; EC50 (Punta Toro virus): 12 µM; CC50 (Vero): 9.9 µM; CC50 (BHK-21): > 100 µM |
| CC(C)n1ncc2c(C(=O)Nc3cccc(S(N)(=O)=O)c3)cc(-c3cccs3)nc21 [JX-025] | 1.2 | 50 | 5 | 1.2 | 1.1 ± 0.3 | 5 | 1.2 | 2.1 ± 0.6 | 25 | 0.15 | 1.1 | 2.1 ± 0.7 | 50 | 0.3 | 1.3 ± 0.1 | 0.06 ± 0.02 | 0.6 | 1.1 ± 0.2 | 1.2 |  | EC50 (Venezuelan Encephalitis): > 0.88 µM; EC50 (Rabies): > 12.2 µM; EC50 (Influenza A H1N1): > 100 µM; EC50 (Enterovirus D68/Fermon): 0.1 µM and 0.15 µM; EC50 (Japanese Encephalitis): 0.31 µM; CC50 (BHK): 8.9 µM; CC50 (MA-104): > 100 µM; EC50 (Measles): 7.1 µM; EC50 (SARS Coronavirus): > 7.2 µM; EC50 (Yellow Fever Virus): > 4.8 µM; CC50 (MDCK): > 100 µM; EC50 (Powassan): > 8.9 µM; CC50 (Vero 76; [4]): > 100 µM; CC50 (Vero 76; [5]): 7.2 µM; EC50 (Chikungunya): 0.3 µM; EC50 (Rift Valley virus): > 100 µM; EC50 [3]: > 100 µM; EC50 (Punta Toro virus): 38 µM; CC50 (Vero): 4.8 µM; CC50 (BHK-21): 12.2 µM |
| CC(C)n1ncc2c(C(=O)Nc3ccc(F)cc3)cc(-c3ccsc3)nc21 [JX-030] | 1.9 | 25 | > 25 | 1.6 ± 0.1 | 1.2 ± 0.1 | > 25 | 1.6 ± 0.1 | 2.6 ± 0.1 | > 100 | 0.6 | 0.9 | 1.7 ± 0.1 | 25 | 1.3 ± 0.1 | 1.4 ± 0.2 | 0.3 | 0.6 | 2.2 ± 0.1 | 1.2 ± 0.1 |  | EC50 (Venezuelan Encephalitis): > 9.4 µM; EC50 (Rabies): 88.4 µM; EC50 (Influenza A H1N1): 10.7 µM; EC50 (Japanese Encephalitis): 3.4 µM; CC50 (BHK): > 85.8 µM; CC50 (MA-104): 67.6 µM; EC50 (Measles): 20.5 µM; EC50 (SARS Coronavirus): 4.4 µM; EC50 (Yellow Fever Virus): > 11.1 µM; CC50 (MDCK): 17.7 µM; EC50 (Powassan): > 85.8 µM; CC50 (Vero 76; [4]): 169 µM; CC50 (Vero 76; [5]): 18.7 µM; EC50 (Chikungunya): > 1.3 µM; EC50 (Rift Valley virus): 140 µM; EC50 [3]: 7 µM; EC50 (Punta Toro virus): > 78 µM; CC50 (Vero): 11.1 µM; CC50 (BHK-21): > 260 µM |
| CC(C)n1ncc2c(C(=O)Nc3ccccn3)cc(-c3cccs3)nc21 [JX-040] |  | > 200 | > 10 | 0.6 | 0.4 | > 10 | 0.6 | 0.6 | > 200 | 0.27 ± 0.06 | 0.6 | 0.6 | > 200 | 0.6 | 0.5 ± 0.1 | 0.17 ± 0.03 | < 0.4 | 0.5 | 0.6 | 0.5 |  |
| CC(C)n1ncc2c(C(=O)Nc3ncccn3)cc(-c3cccs3)nc21 [JX-041] |  |  | > 10 | 0.6 | 0.4 | > 10 | 0.6 | 0.7 | 75 |  | 0.6 | 0.6 | 37.5 | 0.6 | 0.5 ± 0.1 |  | < 0.4 | 0.6 | 0.6 | 0.6 |  |
| CC(C)n1ncc2c(C(=S)Nc3ccc(F)cc3)cc(-c3cccs3)nc21 [JX-046] | > 10 |  |  |  | > 10 |  |  | > 10 | 20 |  | > 10 | > 10 |  |  | > 10 |  | 6.25 |  |  | > 10 |  |
| CC(C)n1ncc2c(C(=O)Nc3cccc(S(=O)(=O)N(C)C)c3)cc(-c3cccs3)nc21 [JX-052] | 0.2 | > 200 | > 10 | 1.2 |  | > 10 | 1.2 | 0.78 | > 200 | 0.53 ± 0.29 |  | 0.8 | 12 | 1.2 | 0.8 ± 0.1 | 0.31 ± 0.07 | 0.4 | 1.2 | 1.2 | 0.6 | EC50 (Enterovirus D68/Fermon): 0.57 ± 0.25 µM |
| CNS(=O)(=O)c1cccc(NC(=O)c2cc(-c3cccs3)nc3c2cnn3C(C)C)c1 [JX-053] | 0.2 |  | > 10 | 0.6 |  | > 10 | 0.6 | 0.45 | 25 |  |  | 0.8 | 12 | 0.6 | 0.7 ± 0.1 |  | 0.6 | 0.6 | 0.6 | 0.6 |  |
| CC(C)n1ncc2c(C(=O)Nc3cccnc3)cc(-c3cccs3)nc21 [JX-056] | 0.2 | 25 | 10 | 0.6 |  | 10 | 0.6 | 0.45 | > 200 | 0.12 |  | 0.6 | 25 | 0.6 | 0.5 ± 0.1 | < 0.1 | 0.3 | 0.6 | 0.6 | 0.2 | EC50 (Enterovirus D68/Fermon): < 0.1 µM |
| CC(C)n1ncc2c(C(=O)N(C)c3ccccn3)cc(-c3cccs3)nc21 [JX-074] | > 10 |  | > 10 | > 10 | > 10 | > 10 | > 10 | > 10 |  |  | > 10 | > 10 |  | > 10 | > 10 |  | > 10 | > 10 | > 10 | > 10 |  |
